These results are taken from patent US12691199B2, “Mussel-inspired photoreactive instant glue for environmental and biomedical applications” (KING ABDULLAH UNIVERSITY OF SCIENCE AND TECHNOLOGY, priority 2022, dated 2026).

The nature of the series: Photocuring / inverted vial test of aqueous adhesive solution. The class given is physicochemical. Conditions: aqueous solution with LAP 50.9 mM, 395 nm light. The protocol: The minimum concentration of the monomer and the crosslinker that leads to a solid material after curing is 892.8 mM and 161.8 mM, respectively. The high hydrophilicity of both compounds allows the formation of a highly concentrated aqueous solution. After the photoinitiator (LAP) addition and the application of 395 nm wavelength light, radicals are formed, and a polymeric crosslinked network is created according to the reaction (FIG. 9). The solution solidifies after 10 sec of exposure to the UV light (FIGS. 10A-B). FIG. 10A has a vial (892.8 mM KDOPA-MA and 161.8 mM (KDOPA)2-DMA) and FIG. 10B (297.6 mM KDOPA-MA and 53.9 mM (KDOPA)2-DMA). In both cases, the LAP concentration was constant (50.9 mM) and the UV light was applied for 10 sec. When the concentration of the compounds decreases, the solution remains liquid and becomes cloudier after curing. […] FIG. 11A illustrates 15% crosslinker molar ratio. FIG. 11B illustrates 45% crosslinker molar ratio.
The adhesive was prepared using the formulation of Table 1. An aqueous solution of LAP photoinitiator (15 mg/ml), KDOPA-MA (350 mg/ml) and (KDOPA)2-DMA (145 mg/ml) was prepared by mixing and vortexing for 10 sec. Throughout the text this formulation mentioned KDopa glue. When KDOPA-MA was replaced with KY-MA (the (KDOPA)2-DMA crosslinker remains the same) disclosed embodiments have the KY glue. […]

Consider Lys-DOPA dimethacrylate [(KDOPA)2-DMA], for which the “minimum concentration that leads to a solid material after curing” value worked out at 161.8 mM.
For Lys-DOPA methacrylate [KDOPA-MA], the “minimum concentration that leads to a solid material after curing” value is 892.8 mM.
